Reference: patent US20230364121A1 (priority 2020, published 2023)
Where “and” joins values, the source holds several entries; their conditions need not be identical. Equal entries are not always repeated. Where two headings read alike, the source gives them in different places.

Key:
[1] = tested on: SARS-CoV-2 strain BavPatl; test: Antiviral assay in HUH7.5 cells, viral RNA by RT-qPCR; format: cell-based; settings: 2 days
Salmonella/microsome = settings: acknowledged by Merck; cited from earlier work
in vitro = settings: human
SARS-CoV-2 (WA1) = test: microbe, parasite or virus in culture; format: cell-based
[2] = tested on: HCoV-229E, HCoV-OC43, SARS-CoV-1 and SARS-CoV-2; test: organism not typed; format: cell-based, human coronaviruses; settings: Huh-7, read-out: Individual determinations of EC90 values
HCoV-229E [3] = settings: MRC-5 cells; cited from earlier work
HCoV-OC43 = test: microbe, parasite or virus in culture; format: cell-based; settings: Betacoronavirus 1, OC43, RD
Huh7 cells = settings: human
MERS-CoV = format: cell-based
SARS-CoV (Urbani) = format: cell-based; settings: SARS-CoV-1, Huh-7, Table 5
HCoV-229E [4] = test: Virus-induced CPE assay, HCoV-229E in BHK-21 cells (MTT); format: cell-based
Experimental: In an initial screening, BHK-21 cells acutely infected with a seasonal human alpha coronavirus, HCoV-229E, were exposed to serial dilutions of Compound 1A.
BHK-21 cells: Test compounds were dissolved in DMSO at 100 mM and then diluted in Minimum Essential Medium with Earle's salts (MEM-E) containing 1 mM sodium pyruvate and 25 μg/mL kanamycin, supplemented with 10% FBS (growth medium) to final concentrations of 100, 20, 4 and 0.8 μM (two […] replica plates each). After BHK-21 cells were grown to confluency in 96-well plates, growth medium was replaced with fresh maintenance medium (growth medium with 1% inactivated FBS in place of 10% FBS) containing serially diluted test compound and HCoV-229E at a multiplicity of infection (MOI) of 0.01. Uninfected cells in the presence of serially diluted compound were used to assess the cytotoxicity of compounds. After a 3-day incubation at 37° C. in a humidified 5% CO2 atmosphere, cell viability was determined by the MTT method (Pauwels, R et al. J. Virol. Methods 20(4):309-321 (1988)).

RD cells = settings: human
[5] = tested on: human coronavirus beta-OC43; test: microbe, parasite or virus in culture; format: cell-based, HCoV-OC43; settings: unidentified human coronavirus, OC43, Huh-7, read-out: VYR EC90
[6] = Cytotoxicity in mock infected BHK cells (MTT); format: cell-based, hamster; settings: hamster, uninfected BHK-21 cells; BHK-21; Table 5
Experimental: To determine the cytotoxicity, cells were seeded at an initial density of 1×10^6 cells/mL in 96 well plates containing Minimum Essential Medium with Earles's salts (MEM-E), L-glutamine, 1 mM sodium pyruvate and 25 mg/L kanamycin, supplemented with 10% fetal bovine serum. Cell cultures were then incubated at 37° C. in a humidified 5% CO2 atmosphere in the absence or presence of serial dilutions of test compounds. Cell viability was determined by the MTT method.
Uninfected cells in the presence of serially diluted compound were used to assess the cytotoxicity of compounds.

[7] = tested on: human coronavirus alpha-229E; test: microbe, parasite or virus in culture; format: cell-based, HCoV-229E
dNHBE (HAE) cells = settings: human
SARS CoV1 nsp14 = SARS CoV1 nsp14 (Severe acute respiratory syndrome coronavirus, UniProt P0C6X7); format: biochemical, SARS-CoV-1
[8] = molecular target: T1, SARS-Cov-1 nsp12:7L8:8 polymerase complex (Severe acute respiratory syndrome coronavirus, UniProt P0C6X7); format: biochemical
[9] = molecular target: Sars-CoV-2 nsp8 labeling by nsp12 (Severe acute respiratory syndrome coronavirus 2, UniProt P0DTD1); test: nsp8-UMPylation competition assay with RTCs; format: biochemical; settings: FIG. 13E
[10] = molecular target: T1, SARS-Cov-1 nsp12:7L8:8 polymerase complex; test: biochemical; format: biochemical
nsp12 NiRAN active-site = nsp12 NiRAN active-site (Severe acute respiratory syndrome coronavirus, UniProt P0C6X7); test: biochemical; format: biochemical, SARS-CoV
nsp12 = nsp12 (Severe acute respiratory syndrome coronavirus, UniProt P0C6X7); format: binding, SARS-CoV
nsp12:7:8 RTC = nsp12:7:8 RTC (Severe acute respiratory syndrome coronavirus, UniProt P0C6X7); format: biochemical, SARS-CoV
[11] = tested on: SARS-CoV and SARS-CoV-2 RTCs; format: biochemical; settings: equimolar concentrations of GTP
nsp12-NiRAN = nsp12-NiRAN (Severe acute respiratory syndrome coronavirus, UniProt P0C6X7); format: biochemical, SARS-CoV
[12] = Severe acute respiratory syndrome coronavirus 2, 48 h
[13] = Severe acute respiratory syndrome coronavirus 2, Huh7.5, 48 h
[14] = Severe acute respiratory syndrome coronavirus 2, HAE, read-out: EC90, single replicates
[15] = Severe acute respiratory syndrome coronavirus 2, HAE, read-out: Virus Yield Reduction Assay EC90
[16] = read-out: EC90, single replicates
[17] = read-out: Virus Yield Reduction Assay EC90
[18] = read-out: Neutral Red Assay EC50

CNc1nc(N)nc2c1ncn2[C@@H]1O[C@H](COP(=O)(N[C@@H](C)C(=O)OC(C)C)Oc2ccccc2)[C@@H](O)[C@@]1(C)F (some centres unmarked) [Compound 1A]
CC50 (HUH 7.5 cells): > 20000 nM
EC90 [1]: 3390 nM
EC50 ([1]; listed as AT-511): 1100 nM and 1130 nM

CC(C)C(=O)OC[C@H]1O[C@@H](n2ccc(NO)nc2=O)[C@H](O)[C@@H]1O [Molnupiravir, molnupiravir]
AMES test (Salmonella/microsome): positive
CC50 (in vitro): > 20000 nM
EC50 [1]: 1710 nM
EC90 [1, 12]: 4210 nM
EC50 [1, 13]: 1700 nM

CNc1nc(N)nc2c1ncn2[C@@H]1O[C@H](CO[P@@](=O)(N[C@@H](C)C(=O)OC(C)C)Oc2ccccc2)[C@@H](O)[C@@]1(C)F [Compound 1A]
replicate EC90 determinations (SARS-CoV-2 (WA1)): ^2Value represents the mean of two replicate EC90 determinations, 0.33 and 0.41 μg/mL
EC90 (SARS-CoV-2 (WA1); Severe acute respiratory syndrome coronavirus 2, HAE, read-out: Average EC90 from two separate HAE assays): 500 nM
EC90 (SARS-CoV-2 (WA1); [14]): 570 nM
EC90 (SARS-CoV-2 (WA1); [15]): 0.37 µg/mL and 640 nM
EC90 (SARS-CoV-2 (WA1); Severe acute respiratory syndrome coronavirus 2, HAE, read-out: replicate EC90 determinations): 0.33 µg/mL
Selectivity Index (SARS-CoV-2 (WA1); dNHBE, virus yield reduction assay): >135
EC90 (SARS-CoV-2 (WA1); [16]): 700 nM and 520 nM and 420 nM
EC90 (SARS-CoV-2 (WA1); [17]): 470 nM
EC90 [2]: 340 to 1200 nM
EC50 (HCoV-229E [3]): > 100000 nM
EC50 (HCoV-OC43; [18]): 2800 nM
EC90 (HCoV-OC43; [17]): 2200 nM
Neutral Red Assay CC50 (Huh7 cells): >50^ μg/mL
difference of activity between MERS-CoV and other CoVs (MERS-CoV): 30 fold
Selectivity Index (CC50/EC90) (SARS-CoV (Urbani)): >250
EC90 (SARS-CoV (Urbani); [17]): 340 nM
EC50 (HCoV-229E [4]; BHK-21, the 2 experiments averaged in Table 5, read-out: EC50, single experiments): 2000 nM
EC50 (HCoV-229E [4]; Human coronavirus 229E, BHK-21, 72 h, BHK-21, dye staining, 3-day incubation, read-out: EC50): 1800 nM
EC50 (HCoV-229E [4]; Human coronavirus 229E, BHK-21, BHK-21, the 2 experiments averaged in Table 5, read-out: EC50, single experiments): 1600 nM
CC50 (RD cells): > 86000 nM
EC90 [5]: 290 nM
CC50 at 3 days [6]: > 100000 nM
Selectivity Index (CC50/EC90) ([7]; Huh-7, Table 5): >75
EC50 [7, 18]: 1600 nM
EC90 ([7]; unidentified human coronavirus, Huh-7, 72 h, read-out: Virus Yield Reduction Assay EC90): 1000 nM
EC50 ([7]; unidentified human coronavirus, Huh-7, 120 h, read-out: Neutral Red Assay EC50): 1700 nM
EC50 ([7]; unidentified human coronavirus, Huh-7, read-out: Neutral Red EC50): 1000 nM
EC90 ([7]; unidentified human coronavirus, Huh-7, read-out: VYR EC90): 710 nM
EC50 ([7]; unidentified human coronavirus, Huh-7, read-out: Visual EC50, Huh7 cells, visual CPE): 1000 nM

CC(C)C[C@H](NC(=O)OCc1ccccc1)C(=O)N[C@@H](C[C@@H]1CCNC1=O)C(O)S(=O)(=O)O (some centres unmarked) [GC376]
CC50 (in vitro): > 20000 nM
EC90 [1, 12]: < 150 nM
EC50 [1, 13]: < 150 nM

O=c1nc(NO)ccn1[C@@H]1O[C@H](CO)[C@@H](O)[C@H]1O [N4-hydroxycytidine, reference compound]
Selectivity Index (CC50/EC90) (SARS-CoV-2 (WA1)): >5.1
potency relative to Compound 1A in the same experiment (times less) (SARS-CoV-2 (WA1)): 8 times
EC90 (SARS-CoV-2 (WA1); [14]): 4700 nM
EC90 (SARS-CoV-2 (WA1); [15]): 3900 nM
EC90 (SARS-CoV-2 (WA1); [16]): 3100 nM
CC50 (dNHBE (HAE) cells): > 19000 nM

C[C@@]1(F)[C@H](O)[C@@H](COP(=O)(O)OP(=O)(O)OP(=O)(O)O)O[C@H]1n1cnc2c(=O)[nH]c(N)nc21 [AT-9010, 2′-fluoro-2′-C-methylguanosine-5′-triphosphate]
inhibition of N7-MTase activity (SARS CoV1 nsp14): no inhibition
Discrimination of ATEA-GTP, average [8]: 27.0+/−7.9 fold and 21.0+/−1.5 fold and 27.0 fold and 21.0 fold
discrimination against GTP [8]: 22 fold
inhibition of primer elongation [8]: no inhibition of primer elongation
fold more efficient at blocking nsp8 labeling than STP [9]: 4-5 fold
EC50 [10]: 1500 to 2000 nM
inhibition of de novo synthesis on poly(A) template [10]: almost complete inhibition
IC50 (nsp12 NiRAN active-site; IC50 of nsp8 labeling against GTP (FIG. 13C)): 2700 ± 300 nM
IC50 (nsp12 NiRAN active-site; IC50 of nsp8 labeling against UTP (FIG. 13C)): 1900 nM
IC50 (nsp12 NiRAN active-site; IC50 of nsp8 labeling, competition with UTP (FIG. 13A)): 870 nM
thermal stability of nsp12 (nsp12): provides more thermodynamic stability than any other native nucleotide
inhibition of RNA synthesis from poly(C) template (nsp12:7:8 RTC): significantly reduces activity
inhibition of synthesis of poly(U)n RNA from poly(A)27 template (nsp12:7:8 RTC): inhibits synthesis of poly(U)n RNA equally as well as STP
discrimination compared with natural GTP [11]: ~5 fold
fold preference AT9010: GTP (nsp12-NiRAN): ~1.7 fold
fold preference AT9010: UTP (nsp12-NiRAN): ~3.2 fold
